Data published in PubChem BioAssay (NCI).
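Each compound was tested at five concentrations against cells in 96-well plates for 48 hours. Definition used: TGI = concentration required for complete inhibition of growth.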

How the values were obtained:
Assay in all cases: NCI anticancer screen, dose series, 48 h
HL-60(TB) leukemia = test system: HL-60(TB) leukemia
OVCAR-5 ovarian = test system: OVCAR-5 ovarian
CCRF-CEM leukemia = test system: CCRF-CEM leukemia
DMS 114 small cell lung = test system: DMS 114 small cell lung
HOP-92 NSCLC = test system: HOP-92 NSCLC
MOLT-4 leukemia = test system: MOLT-4 leukemia
HOP-62 NSCLC = test system: HOP-62 NSCLC
UACC-62 melanoma = test system: UACC-62 melanoma
NCI-H226 lung = test system: NCI-H226 lung
RXF 393 renal = test system: RXF 393 renal
HT29 colon = test system: HT29 colon
NCI-H522 lung = test system: NCI-H522 lung
SNB-19 CNS = test system: SNB-19 CNS
RXF-631 renal = test system: RXF-631 renal
SF-295 CNS = test system: SF-295 CNS
A549 NSCLC = test system: A549 NSCLC
ACHN renal = test system: ACHN renal
NCI-H460 lung = test system: NCI-H460 lung
U251 CNS = test system: U251 CNS
EKVX NSCLC = test system: EKVX NSCLC
IGROV1 ovarian = test system: IGROV1 ovarian
SK-OV-3 ovarian = test system: SK-OV-3 ovarian
M19-MEL melanoma = test system: M19-MEL melanoma
KM12 colon = test system: KM12 colon
NCI-H23 lung = test system: NCI-H23 lung
HCT-116 colon = test system: HCT-116 colon
SK-MEL-28 melanoma = test system: SK-MEL-28 melanoma
SNB-78 CNS = test system: SNB-78 CNS
UACC-257 melanoma = test system: UACC-257 melanoma
A498 renal = test system: A498 renal
OVCAR-8 ovarian = test system: OVCAR-8 ovarian
M14 melanoma = test system: M14 melanoma
SR leukemia = test system: SR leukemia
UO-31 renal = test system: UO-31 renal
TK-10 renal = test system: TK-10 renal
DLD-1 colon = test system: DLD-1 colon
SF-268 CNS = test system: SF-268 CNS
SW-620 colon = test system: SW-620 colon
SN12C renal = test system: SN12C renal
SK-MEL-5 melanoma = test system: SK-MEL-5 melanoma
HCT-15 colon = test system: HCT-15 colon
HCC-2998 colon = test system: HCC-2998 colon
786-0 renal = test system: 786-0 renal
SF-539 CNS = test system: SF-539 CNS
K-562 leukemia = test system: K-562 leukemia
LXFL 529 NSCLC = test system: LXFL 529 NSCLC
SNB-75 CNS = test system: SNB-75 CNS
OVCAR-4 ovarian = test system: OVCAR-4 ovarian
LOX IMVI melanoma = test system: LOX IMVI melanoma
MALME-3M melanoma = test system: MALME-3M melanoma
KM20L2 colon = test system: KM20L2 colon
SK-MEL-2 melanoma = test system: SK-MEL-2 melanoma
DMS 273 small cell lung = test system: DMS 273 small cell lung
HOP-18 NSCLC = test system: HOP-18 NSCLC
COLO 205 colon = test system: COLO 205 colon
RPMI-8226 leukemia = test system: RPMI-8226 leukemia
CAKI-1 renal = test system: CAKI-1 renal
OVCAR-3 ovarian = test system: OVCAR-3 ovarian
XF 498 CNS = test system: XF 498 CNS

C[C@H]1C(=O)c2c(cc(O)c(C3OC(CO)C(O)C(O)C3O)c2O)OC1c1ccc(O)c(O)c1 (stereo partly specified)
TGI (HL-60(TB) leukemia): > 100 µM | TGI (OVCAR-5 ovarian): > 100 µM | TGI (CCRF-CEM leukemia): > 100 µM | TGI (DMS 114 small cell lung): > 100 µM | TGI (HOP-92 NSCLC): > 100 µM | TGI (MOLT-4 leukemia): > 100 µM | TGI (HOP-62 NSCLC): > 100 µM | TGI (UACC-62 melanoma): > 100 µM | TGI (NCI-H226 lung): 98.9 µM | TGI (RXF 393 renal): > 100 µM | TGI (HT29 colon): > 100 µM | TGI (NCI-H522 lung): > 100 µM | TGI (SNB-19 CNS): > 100 µM | TGI (RXF-631 renal): > 100 µM | TGI (SF-295 CNS): > 100 µM | TGI (A549 NSCLC): > 100 µM | TGI (ACHN renal): > 100 µM | TGI (NCI-H460 lung): > 100 µM | TGI (U251 CNS): > 100 µM | TGI (EKVX NSCLC): > 100 µM | TGI (IGROV1 ovarian): > 100 µM | TGI (SK-OV-3 ovarian): > 100 µM | TGI (M19-MEL melanoma): > 100 µM | TGI (KM12 colon): > 100 µM | TGI (NCI-H23 lung): > 100 µM | TGI (HCT-116 colon): > 100 µM | TGI (SK-MEL-28 melanoma): > 100 µM | TGI (SNB-78 CNS): > 100 µM | TGI (UACC-257 melanoma): > 100 µM | TGI (A498 renal): > 100 µM | TGI (OVCAR-8 ovarian): > 100 µM | TGI (M14 melanoma): > 100 µM | TGI (SR leukemia): > 100 µM | TGI (UO-31 renal): > 100 µM | TGI (TK-10 renal): > 100 µM

C/C(=N\NC(=O)C(N)=O)c1c(O)cc(C)oc1=O
TGI (DLD-1 colon): > 100 µM | TGI (SF-268 CNS): > 100 µM | TGI (HL-60(TB) leukemia): > 100 µM | TGI (CCRF-CEM leukemia): > 100 µM | TGI (SW-620 colon): > 100 µM | TGI (HOP-92 NSCLC): > 100 µM | TGI (MOLT-4 leukemia): > 100 µM | TGI (SN12C renal): > 100 µM | TGI (HOP-62 NSCLC): > 100 µM | TGI (SK-MEL-5 melanoma): > 100 µM | TGI (UACC-62 melanoma): > 100 µM | TGI (NCI-H226 lung): > 100 µM | TGI (HT29 colon): > 100 µM | TGI (HCT-15 colon): > 100 µM | TGI (SNB-19 CNS): > 100 µM | TGI (RXF-631 renal): > 100 µM | TGI (SF-295 CNS): > 100 µM | TGI (A549 NSCLC): > 100 µM | TGI (ACHN renal): > 100 µM | TGI (NCI-H460 lung): > 100 µM | TGI (U251 CNS): > 100 µM | TGI (EKVX NSCLC): > 100 µM | TGI (HCC-2998 colon): > 100 µM | TGI (786-0 renal): > 100 µM | TGI (SF-539 CNS): > 100 µM | TGI (K-562 leukemia): > 100 µM | TGI (IGROV1 ovarian): > 100 µM | TGI (LXFL 529 NSCLC): > 100 µM | TGI (SNB-75 CNS): > 100 µM | TGI (SK-OV-3 ovarian): > 100 µM | TGI (M19-MEL melanoma): > 100 µM | TGI (KM12 colon): > 100 µM | TGI (NCI-H23 lung): > 100 µM | TGI (HCT-116 colon): > 100 µM | TGI (SK-MEL-28 melanoma): > 100 µM | TGI (OVCAR-4 ovarian): > 100 µM | TGI (SNB-78 CNS): > 100 µM | TGI (LOX IMVI melanoma): > 100 µM | TGI (UACC-257 melanoma): > 100 µM | TGI (A498 renal): > 100 µM | TGI (OVCAR-8 ovarian): > 100 µM | TGI (MALME-3M melanoma): > 100 µM | TGI (M14 melanoma): > 100 µM | TGI (KM20L2 colon): > 100 µM | TGI (SR leukemia): > 100 µM | TGI (UO-31 renal): > 100 µM | TGI (TK-10 renal): > 100 µM | TGI (SK-MEL-2 melanoma): > 100 µM

Nc1nc2c(ncn2CCCC(c2ccccc2)P(=O)(O)O)c(=O)[nH]1 (stereo unspecified)
TGI (DLD-1 colon): > 100 µM | TGI (DMS 273 small cell lung): > 100 µM | TGI (SF-268 CNS): > 100 µM | TGI (HL-60(TB) leukemia): > 100 µM | TGI (OVCAR-5 ovarian): > 100 µM | TGI (CCRF-CEM leukemia): > 100 µM | TGI (DMS 114 small cell lung): > 100 µM | TGI (HOP-18 NSCLC): > 100 µM | TGI (SW-620 colon): > 100 µM | TGI (HOP-92 NSCLC): > 100 µM | TGI (MOLT-4 leukemia): > 100 µM | TGI (SN12C renal): > 100 µM | TGI (COLO 205 colon): > 100 µM | TGI (HOP-62 NSCLC): > 100 µM | TGI (SK-MEL-5 melanoma): > 100 µM | TGI (UACC-62 melanoma): > 100 µM | TGI (HT29 colon): > 100 µM | TGI (HCT-15 colon): > 100 µM | TGI (NCI-H522 lung): > 100 µM | TGI (SNB-19 CNS): > 100 µM | TGI (SF-295 CNS): > 100 µM | TGI (A549 NSCLC): > 100 µM | TGI (ACHN renal): > 100 µM | TGI (NCI-H460 lung): > 100 µM | TGI (U251 CNS): > 100 µM | TGI (RPMI-8226 leukemia): > 100 µM | TGI (EKVX NSCLC): > 100 µM | TGI (HCC-2998 colon): > 100 µM | TGI (786-0 renal): > 100 µM | TGI (SF-539 CNS): > 100 µM | TGI (K-562 leukemia): > 100 µM | TGI (IGROV1 ovarian): > 100 µM | TGI (CAKI-1 renal): > 100 µM | TGI (OVCAR-3 ovarian): > 100 µM | TGI (LXFL 529 NSCLC): > 100 µM | TGI (SNB-75 CNS): > 100 µM | TGI (SK-OV-3 ovarian): > 100 µM | TGI (M19-MEL melanoma): > 100 µM | TGI (KM12 colon): > 100 µM | TGI (NCI-H23 lung): > 100 µM | TGI (HCT-116 colon): > 100 µM | TGI (SK-MEL-28 melanoma): > 100 µM | TGI (SNB-78 CNS): > 100 µM | TGI (LOX IMVI melanoma): > 100 µM | TGI (UACC-257 melanoma): > 100 µM | TGI (OVCAR-8 ovarian): > 100 µM | TGI (MALME-3M melanoma): > 100 µM | TGI (M14 melanoma): > 100 µM | TGI (KM20L2 colon): > 100 µM | TGI (UO-31 renal): > 100 µM | TGI (TK-10 renal): > 100 µM | TGI (SK-MEL-2 melanoma): > 100 µM

COc1ccc(/C=C/c2cc(OC)c(OCc3ccccc3)c(OC)c2)cc1
TGI (DLD-1 colon): > 100 µM | TGI (XF 498 CNS): > 100 µM | TGI (DMS 273 small cell lung): > 100 µM | TGI (SF-268 CNS): > 100 µM | TGI (OVCAR-5 ovarian): 94.5 µM | TGI (CCRF-CEM leukemia): > 100 µM | TGI (DMS 114 small cell lung): > 100 µM | TGI (SW-620 colon): > 100 µM | TGI (HOP-92 NSCLC): > 100 µM | TGI (MOLT-4 leukemia): > 100 µM | TGI (SN12C renal): > 100 µM | TGI (COLO 205 colon): > 100 µM | TGI (HOP-62 NSCLC): > 100 µM | TGI (UACC-62 melanoma): > 100 µM | TGI (NCI-H226 lung): > 100 µM | TGI (HT29 colon): > 100 µM | TGI (NCI-H522 lung): > 100 µM | TGI (SNB-19 CNS): > 100 µM | TGI (RXF-631 renal): > 100 µM | TGI (A549 NSCLC): > 100 µM | TGI (ACHN renal): > 100 µM | TGI (NCI-H460 lung): > 100 µM | TGI (U251 CNS): > 100 µM | TGI (RPMI-8226 leukemia): > 100 µM | TGI (EKVX NSCLC): > 100 µM | TGI (HCC-2998 colon): > 100 µM | TGI (786-0 renal): > 100 µM | TGI (SF-539 CNS): > 100 µM | TGI (K-562 leukemia): > 100 µM | TGI (IGROV1 ovarian): > 100 µM | TGI (CAKI-1 renal): > 100 µM | TGI (OVCAR-3 ovarian): > 100 µM | TGI (LXFL 529 NSCLC): > 100 µM | TGI (SNB-75 CNS): > 100 µM | TGI (SK-OV-3 ovarian): > 100 µM | TGI (M19-MEL melanoma): > 100 µM | TGI (KM12 colon): > 100 µM | TGI (NCI-H23 lung): > 100 µM | TGI (HCT-116 colon): > 100 µM | TGI (SK-MEL-28 melanoma): > 100 µM | TGI (OVCAR-4 ovarian): > 100 µM | TGI (SNB-78 CNS): > 100 µM | TGI (UACC-257 melanoma): > 100 µM | TGI (A498 renal): > 100 µM | TGI (OVCAR-8 ovarian): > 100 µM | TGI (MALME-3M melanoma): > 100 µM | TGI (M14 melanoma): > 100 µM | TGI (KM20L2 colon): > 100 µM | TGI (SR leukemia): > 100 µM | TGI (UO-31 renal): > 100 µM | TGI (SK-MEL-2 melanoma): > 100 µM
